Assay results reported in patent US10670600B2, “Saposin-A derived peptides and uses thereof” (CHILDREN'S MEDICAL CENTER CORPORATION, priority 2007, dated 2020).
Bridge positions count the residues as written; N and C are the ends. Ends that are not written are not given here.

Experiments:
thrombospondin-1 (Tsp-1) = assay: Tsp-1 expression in lungs and livers of treated mice, western blot; format: in vivo
Method: The 20-mer […] (SEQ. ID. No. 29) was tested in vivo in mice for their ability to induce Tsp-1 expression. Four mice were treated with the 20-amino acid peptide (residues 31-50 of saposin A) at a dose of 30 mg/kg/day in combination with 200 μL of conditioned media (CM) from the metastatic prostate cancer cell line PC3M-LN4. […] Another four mice were treated with CM from PC3M-LN4 alone, and a control group of four mice with treated with vehicle (PBS) alone. […] Mice were treated for 9 days after which they were sacrificed and the lungs and livers were harvested and lysed. Tissue lysates were then run on a 4-12% gradient bis-tris polyacrylamide gel and transferred to a nitrocellulose membrane for western blotting with antibodies specific for thrombospondin-1 (Tsp-1) and β-actin.

[1] = tested on: Tsp-1 expression in WI-38 lung fibroblasts; assay: Tsp-1 expression in WI-38 lung fibroblasts, western blot; format: cell-based, human
Method: (§1) For the conditioned media assay, 1.5×10^6 tumor cells and fibroblasts cells were grown in the tumor cell media containing 0.1% FBS for 12 hours at which point the conditioned media from the tumor cells was centrifuged to remove any cells or cell debris and transferred to the fibroblasts subsequent to removal of the low serum fibroblast growth media. All assays were performed a minimum of five times and representative samples depicted. The fibroblasts and media were harvested after 12 to 16 hours after addition of the tumor cell conditioned media and lysed for the western blot analysis while the conditioned media was collected for ELISA analysis. For the co-culture assays, 1×10^6 fibroblasts were seeded in the bottom chamber of transwell tissue culture plates (Corning Inc., Corning, N.Y.) and 1×10^6 tumor cells were seeded on the membrane in the top chamber of the plates. The two cell types were co-cultured for 40 to 44 hours in tumor cell media containing 0.1% FBS before harvesting and lysing the fibroblasts for western blot analysis and collecting the media for ELISA analysis.
(§2) For Western blotting, cells were harvested by mechanical scraping into 4° C. PBS, cell pellets were obtained by removing PBS after centrifugation at 13,000 rpm in a Heraeus Biofuge Fresco (Thermo Electron, Asheville, N.C.) for 2 min. Cells were then lysed in 50 mM Tris-HCl (pH 7.4), 150 mM NaCl, 1% NP40, 1 mM sodium orthovanadate, 5 mM NaF, 20 mM β-glycerophosphate, and complete protease inhibitor (Roche, Indianapolis, Ind.) and protein concentrations were determined by the BioRad protein assay (BioRad, Hercules, Calif.). Fifty micrograms of protein were loaded per well onto a 4-12% pre-cast Bis-Tris gel (BioRad, Hercules, Calif.). The protein extracts were electrophoresed and transferred to an immobilon-P membrane (Millipore, Bedford, Mass.). The membranes were blocked in 5% nonfat milk and incubated in primary antibody to Tsp-1 (Ab-11, LabVision, Fremont, Calif.), c-Myc and phospho-Myc (Cell Signaling Technology, Beverly, Mass.), Prosaposin (Santa Cruz Biotechnology, Santa Cruz, Calif.), β-actin (AbCam, Cambridge, UK). The membranes were then washed in PBS+0.1% Tween-20 and incubated with either HRP-conjugated goat anti-mouse or anti-rabbit secondary antibody (Jackson Immunoresearch Laboratories, West Grove, Pa.) followed by another wash. The membrane was then developed with ECL reagent (Pierce, Rockford, Ill.) and exposed on film. Protein volume intensity was determined using a Bio-Rad Chemi-Doc XRS system (Bio-Rad, CA). […]
Seven 20-amino acid (20-mer) peptides derived from saposin A were tested for ability to stimulate Tsp-1 expression in fibroblasts. […] WI-38 lung fibroblasts were treated with these peptides overnight and the Tsp-1 expression was analyzed by Western blot analysis. […]

[2] = tested on: p53 expression in prostate fibroblasts; assay: p53 expression in prostate fibroblasts, western blot; format: cell-based, human
Method: Methods of assaying the effects of mutant, fragment or variant Psap on Tsp-1 and p53 expression are described herein. Briefly, full-length, mutant, fragment and variant Psap are applied to the cell cultures prostate fibroblast. The conditioned media from PC3M-LN4 (LN4) and PC3 cells are used as controls, with PC3 as positive/stimulating control and LN4 as negative/inhibiting controls. After a period of included (˜16 h), the cells are harvested, rinsed, and lysed. The lysates are analyzed for the level of Tsp-1 and p53 expression by western blot analyses, with β-actin as the internal lysate protein loading control. […]
For Western blotting, cells were harvested by mechanical scraping into 4° C. […] Cells were then lysed in 50 mM Tris-HCl (pH 7.4), 150 mM NaCl, 1% NP40, 1 mM sodium orthovanadate, 5 mM NaF, 20 mM β-glycerophosphate, and complete protease inhibitor (Roche, Indianapolis, Ind.) and protein concentrations were determined by the BioRad protein assay (BioRad, Hercules, Calif.). […] Protein volume intensity was determined using a Bio-Rad Chemi-Doc XRS system (Bio-Rad, CA).
Having determined that p53 protein levels were elevated in the stroma of PC3 tumors, the inventors determined if p53 stimulation could be responsible for the increased expression of Tsp-1. […]

[3] = tested on: Tsp-1 expression in prostate fibroblasts; assay: Tsp-1 expression in prostate fibroblasts, western blot; format: cell-based, human; details: for stimulation of Tsp-1 by PC3 conditioned media in the presence of inhibitor: prostate fibroblasts treated with PC3 CM plus inhibitor
Method: Methods of assaying the effects of mutant, fragment or variant Psap on Tsp-1 and p53 expression are described herein. Briefly, full-length, mutant, fragment and variant Psap are applied to the cell cultures prostate fibroblast. The conditioned media from PC3M-LN4 (LN4) and PC3 cells are used as controls, with PC3 as positive/stimulating control and LN4 as negative/inhibiting controls. After a period of included (˜16 h), the cells are harvested, rinsed, and lysed. The lysates are analyzed for the level of Tsp-1 and p53 expression by western blot analyses, with β-actin as the internal lysate protein loading control.
as §1
For Western blotting, cells were harvested by mechanical scraping into 4° C. PBS, cell pellets were obtained by removing PBS after centrifugation at 13,000 rpm in a Heraeus Biofuge Fresco (Thermo Electron, Asheville, N.C.) for 2 min. Cells were then lysed in 50 mM Tris-HCl (pH 7.4), 150 mM NaCl, 1% NP40, 1 mM sodium orthovanadate, 5 mM NaF, 20 mM β-glycerophosphate, and complete protease inhibitor (Roche, Indianapolis, Ind.) and protein concentrations were determined by the BioRad protein assay (BioRad, Hercules, Calif.). Fifty micrograms of protein were loaded per well onto a 4-12% pre-cast Bis-Tris gel (BioRad, Hercules, Calif.). The protein extracts were electrophoresed and transferred to an immobilon-P membrane (Millipore, Bedford, Mass.). […] Protein volume intensity was determined using a Bio-Rad Chemi-Doc XRS system (Bio-Rad, CA).

[4] = tested on: MDM2 in WI-38 fibroblasts; assay: MDM2 protein levels in WI-38 fibroblasts, western blot; format: cell-based, human
p53 in WI-38 fibroblasts = assay: p53 expression in WI-38 fibroblasts, western blot; format: cell-based, human
Psap in PC3-MycER cells = assay: Psap levels in PC3-MycER cells, western blot; format: cell-based, human; details: induction of Myc function
Method: as §2, with “The membrane was then developed with ECL reagent (Pierce, Rockford, Ill.) and exposed on film.” left out

semaphorin 3F = semaphorin 3F mRNA in WI-38 fibroblasts, real time RT-PCR; format: cell-based, human; details: conditioned media of cells with or without prosaposin, relative to GAPDH
Method: FIG. 25. mRNA levels of semaphorin 3F, relative to GAPDH, in WI-38 fibroblasts that were untreated (NoTxPrSc) treated with conditioned media from PC3, PC3-shprosaposin (PC3-sh), PC3M-LN4 (LN4) and PC3M-LN4 cells ectopically expressing prosaposin (LN4Psap) as determined by real time RT-PCR.
Finally, it was determined that prosaposin stimulates the expression of semaphorin 3F, a transcriptional target of p53 and an inhibitor of metastasis and lymphangiogenesis, at the mRNA level (FIG. 25).

[5] = mice treated for 9 days, versus control
[6] = mice, 30 mg/kg/day with 200 μL PC3M-LN4 CM, 9 days, compared to PC3M-LN4 CM
[7] = WI-38 lung fibroblasts treated with peptide
[8] = WI-38 fibroblasts treated with peptide
[9] = WI-38 fibroblasts, in the presence of the cyclic 13-mer

## LEKTCDWLPKPNMSASCKEI [SEQ. ID. No. 29, 20-mer, residues 31-50 of saposin A]
thrombospondin-1 (Tsp-1); mice treated for 9 days, lung and liver
  level of Tsp-1 stimulation relative to PC3 conditioned media: greater
thrombospondin-1 (Tsp-1); [5]
  Tsp-1 expression in the liver (in words): stimulated
  Tsp-1 expression in the lung (in words): stimulated
thrombospondin-1 (Tsp-1); [6]
  stimulation of Tsp-1 expression in the liver: 4 fold
  stimulation of Tsp-1 expression in the lung: 6 fold
[1]; [7]
  Tsp-1 expression (in words): able to stimulate

## COc1ccc2c(c1)c(C1=C(c3c[nH]c4ccccc34)C(=O)NC1=O)cn2CCCN(C)C [GO 6983, reference compound]
[2]; prostate fibroblasts treated with PC3 CM plus inhibitor
  stimulation of p53 by PC3 conditioned media in the presence of inhibitor: abolished
[3]
  stimulation of Tsp-1 by PC3 conditioned media in the presence of inhibitor: abolished

## CDWLPKPNMSASC (disulfide 1-13) [SEQ. ID. No. 37, cyclic 13 amino acid peptide, residues 35-47 of saposin A]
[1]; [7]
  Tsp-1 expression (in words): sufficient to stimulate
[4]; [8]
  MDM2 protein level (in words): down regulation
p53 in WI-38 fibroblasts; [8]
  p53 expression (in words): sufficient to stimulate

## NC(=O)c1ccc(-c2nc(-c3ccc4c(c3)OCCO4)c(-c3ccccn3)[nH]2)cc1 [D4476, reference compound]
[1]; [9]
  Tsp-1 protein level (in words): reduction
[4]; [9]
  MDM2 protein level (in words): increase
p53 in WI-38 fibroblasts; [9]
  p53 protein level (in words): reduction

## 4-hydroxy-tamoxifen [4-HT]
Psap in PC3-MycER cells
  reduction in Psap levels: 4 fold

B1: prosaposin: saposin precursor protein, purified from PC3M-LN4 conditioned media with Talon metal affinity resin (protein, listed as Homo sapiens)
chain: MYALFLLASLLGAALAGPVLGLKCTRGSAVWCQNVKTASDCGAVKHCLQTVWNKPTVKSLPCDICKDVVTAAGDMLKDNATILVYLKTCDWLPKPNMSASCKIVDSYLPVILDIIKGMSRPGVCSALNLCSLQKHLALNHQKQLSNKIPLDMTVVAPFMANIPLLLYPQDGPRSKPQPKDNGDVCQDCIQMVTDIQTAVRTNSTFVQALVHVKCDRLGPGMADICKNYISQYSIAIQMMMHMQPKICALVGFCDVKMPMQTLVPAKVASKNVIPALLVPIKKHVPAKSDVYCVCFLVKVTKLIDNNKTKILDAFDKMCSKLPKSLSCQVVDTYGSSILSILLVSPLVCSMLHLCSGTRLPALTVHVTQPKDGGFCVCKKLVGYLDRNLKNSTKQILAALKGCSFLPDPYQKQCDQFVAYPVLIILVVMDPSFVCLKIGACPSAHKPLLGTKCIWGPSYWCQNTTAAQCNAVHCKRHVWN
[2]; prostate fibroblasts, western blot
  p53 expression (in words): stimulated
[3]; prostate fibroblasts, western blot, band volume density, purified Psap 5 μg
  stimulation of Tsp-1 expression: ~5 fold
Semaphorin 3F
  expression of semaphorin 3F at the mRNA level: stimulates

B2: SLPCDICKDVVTAAGDMLKDNATEEEILVYLEKTCDWLPKPNMSASCKEIVDSYLPVILDIIKGEMSRPGEVCSALNLCES (protein, listed as Homo sapiens)
chain: SLPCDICKDVVTAAGDMLKDNATEEEILVYLEKTCDWLPKPNMSASCKEIVDSYLPVILDIIKGEMSRPGEVCSALNLCES
notes: cleavage product of Psap, expressed as truncation mutant
[1]; lung fibroblasts, CM from PC3M-LN4 cells transduced with truncated mutants of prosaposin
  Tsp-1 expression (in words): sufficient to stimulate
[3]; prostate fibroblasts, conditioned media of PC3M-LN4 cells transfected with truncation mutants
  stimulation of Tsp-1 (in words): minimal domain that is functionally required for the stimulation of Tsp-1

B3: RAP: Receptor Associate Protein, a competitive inhibitor of LRP binding (protein)
chain: YSREKNQPKPSPKRESGEEFRMEKLNQLWEKAQRLHLPPVRLAELHADLKIQERDELAWKKLKLDGLDEDGEKEARLIRNLNVILAKYGLDGKKDARQVTSNSLSGTQEDGLDDPRLEKLWHKAKTSGKFSGEELDKLWREFLHHKEKVHEYNVLLETLSRTEEIHENVISPSDLSDIKGSVLHSRHTELKEKLRSINQGLDRLRRVSHQGYSTEAEFEEPRVIDLWDLAQSANLTDKELEAFREELKHFEAKIEKHNHYQKQLEIAHEKLRHAESVGDGERVSRSREKHALLEGRTKELGYTVKKHLQDLSGRISRARHNEL
[3]
  stimulation of Tsp-1 by PC3 conditioned media in the presence of inhibitor: no longer stimulated
